For 3 molecules, remaining binding results are on record in patent US11208412B2 (DAEGU-GYEONGBUK MEDICAL INNOVATION FOUNDATION, priority 2017, dated 2021).

Common to all, as to assay: Kinase selectivity, DiscoverX scanMAX Kinase assay panel (% control)
What all share (assay type): binding

Test [1] deals with T1, kinases of the scanMAX Kinase assay panel (Homo sapiens, UniProt Q02763).
T1 construct: purchased DiscoverX Co. (contract measurement) scanMAX Kinase assay panel
Conditions: kinase TIE2; 1 uM in DMSO. The essentials: (§1)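 A 1 uM DMSO solution of compound was applied across the panel kinases, and results were expressed as % control relative to DMSO (100%) and a positive control (0%).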

For test [2], the target named is T2, kinases of the scanMAX Kinase assay panel (Homo sapiens, UniProt Q9P289).
T2 construct: purchased DiscoverX Co. (contract measurement) scanMAX Kinase assay panel
Conditions: MST4; 1 uM. The essentials:
as §1

Test [3] has as its target T3, kinases of the scanMAX Kinase assay panel (Homo sapiens, UniProt P21860).
T3 construct: purchased DiscoverX Co. (contract measurement) scanMAX Kinase assay panel
Conditions: ERBB3; 1 uM. The essentials: as §1

In test [4] the target is T4, kinases of the scanMAX Kinase assay panel (Homo sapiens, UniProt Q9UM73, L1196M).
T4 construct: purchased DiscoverX Co. (contract measurement) scanMAX Kinase assay panel
Conditions: ALK(L1196M); 1 uM. The essentials:
as §1

Test [5] deals with T5, kinases of the scanMAX Kinase assay panel (Homo sapiens, UniProt P45983).
T5 construct: purchased DiscoverX Co. (contract measurement) scanMAX Kinase assay panel
Conditions: JNK1; 1 uM. The essentials:
as §1

The target in test [6] is T6, kinases of the scanMAX Kinase assay panel (Homo sapiens, UniProt Q9Y2U5).
T6 construct: purchased DiscoverX Co. (contract measurement) scanMAX Kinase assay panel
T6 sequence (Q9Y2U5 1-619): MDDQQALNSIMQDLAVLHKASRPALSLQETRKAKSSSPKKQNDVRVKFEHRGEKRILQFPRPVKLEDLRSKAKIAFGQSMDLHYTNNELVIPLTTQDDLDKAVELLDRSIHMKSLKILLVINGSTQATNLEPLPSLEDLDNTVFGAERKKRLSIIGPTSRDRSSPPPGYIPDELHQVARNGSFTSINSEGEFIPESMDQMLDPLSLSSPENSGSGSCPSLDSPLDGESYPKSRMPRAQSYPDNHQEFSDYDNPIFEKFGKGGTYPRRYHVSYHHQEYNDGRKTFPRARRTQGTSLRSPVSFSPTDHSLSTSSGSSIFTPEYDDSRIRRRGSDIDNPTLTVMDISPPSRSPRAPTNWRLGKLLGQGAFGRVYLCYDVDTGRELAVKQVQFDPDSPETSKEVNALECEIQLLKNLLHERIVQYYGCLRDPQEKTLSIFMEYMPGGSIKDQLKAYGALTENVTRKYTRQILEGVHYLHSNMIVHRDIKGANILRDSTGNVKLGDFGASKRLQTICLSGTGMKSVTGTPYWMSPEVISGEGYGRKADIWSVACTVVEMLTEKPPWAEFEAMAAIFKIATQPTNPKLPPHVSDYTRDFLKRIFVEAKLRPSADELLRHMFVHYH
Conditions: MAP3K2; 1 uM. The essentials: as §1

Test [7] has as its target T7, kinases of the scanMAX Kinase assay panel (Homo sapiens, UniProt P51813).
T7 construct: purchased DiscoverX Co. (contract measurement) scanMAX Kinase assay panel
T7 sequence (P51813 1-675): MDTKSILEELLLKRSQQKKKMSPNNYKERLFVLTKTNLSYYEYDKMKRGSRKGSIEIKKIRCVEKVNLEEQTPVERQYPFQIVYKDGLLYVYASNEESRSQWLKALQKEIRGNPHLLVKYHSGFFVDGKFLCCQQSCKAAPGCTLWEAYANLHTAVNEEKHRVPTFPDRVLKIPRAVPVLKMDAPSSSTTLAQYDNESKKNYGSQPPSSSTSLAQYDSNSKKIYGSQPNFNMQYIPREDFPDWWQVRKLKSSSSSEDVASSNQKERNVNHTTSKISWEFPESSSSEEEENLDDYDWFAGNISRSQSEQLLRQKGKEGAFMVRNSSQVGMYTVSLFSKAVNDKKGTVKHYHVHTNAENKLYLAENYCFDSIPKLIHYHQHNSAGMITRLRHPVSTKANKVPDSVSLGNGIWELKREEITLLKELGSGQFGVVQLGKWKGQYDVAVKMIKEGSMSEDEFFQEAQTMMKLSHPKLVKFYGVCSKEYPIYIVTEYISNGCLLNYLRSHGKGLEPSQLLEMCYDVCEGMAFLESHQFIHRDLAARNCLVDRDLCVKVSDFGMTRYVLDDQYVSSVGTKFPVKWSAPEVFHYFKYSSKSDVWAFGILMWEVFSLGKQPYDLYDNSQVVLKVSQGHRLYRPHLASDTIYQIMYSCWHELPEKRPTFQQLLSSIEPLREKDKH
Conditions: BMX; 1 uM. The essentials:
as §1

Test [8] has as its target T8, kinases of the scanMAX Kinase assay panel (Homo sapiens, UniProt P04626).
T8 construct: purchased DiscoverX Co. (contract measurement) scanMAX Kinase assay panel
Conditions: ERBB2; 1 uM. The essentials:
as §1

Test [9] has as its target T9, kinases of the scanMAX Kinase assay panel (Homo sapiens, UniProt P31749).
T9 construct: purchased DiscoverX Co. (contract measurement) scanMAX Kinase assay panel
Conditions: AKT1; 1 uM. The essentials:
as §1

T8 sequence (P04626 23-1255): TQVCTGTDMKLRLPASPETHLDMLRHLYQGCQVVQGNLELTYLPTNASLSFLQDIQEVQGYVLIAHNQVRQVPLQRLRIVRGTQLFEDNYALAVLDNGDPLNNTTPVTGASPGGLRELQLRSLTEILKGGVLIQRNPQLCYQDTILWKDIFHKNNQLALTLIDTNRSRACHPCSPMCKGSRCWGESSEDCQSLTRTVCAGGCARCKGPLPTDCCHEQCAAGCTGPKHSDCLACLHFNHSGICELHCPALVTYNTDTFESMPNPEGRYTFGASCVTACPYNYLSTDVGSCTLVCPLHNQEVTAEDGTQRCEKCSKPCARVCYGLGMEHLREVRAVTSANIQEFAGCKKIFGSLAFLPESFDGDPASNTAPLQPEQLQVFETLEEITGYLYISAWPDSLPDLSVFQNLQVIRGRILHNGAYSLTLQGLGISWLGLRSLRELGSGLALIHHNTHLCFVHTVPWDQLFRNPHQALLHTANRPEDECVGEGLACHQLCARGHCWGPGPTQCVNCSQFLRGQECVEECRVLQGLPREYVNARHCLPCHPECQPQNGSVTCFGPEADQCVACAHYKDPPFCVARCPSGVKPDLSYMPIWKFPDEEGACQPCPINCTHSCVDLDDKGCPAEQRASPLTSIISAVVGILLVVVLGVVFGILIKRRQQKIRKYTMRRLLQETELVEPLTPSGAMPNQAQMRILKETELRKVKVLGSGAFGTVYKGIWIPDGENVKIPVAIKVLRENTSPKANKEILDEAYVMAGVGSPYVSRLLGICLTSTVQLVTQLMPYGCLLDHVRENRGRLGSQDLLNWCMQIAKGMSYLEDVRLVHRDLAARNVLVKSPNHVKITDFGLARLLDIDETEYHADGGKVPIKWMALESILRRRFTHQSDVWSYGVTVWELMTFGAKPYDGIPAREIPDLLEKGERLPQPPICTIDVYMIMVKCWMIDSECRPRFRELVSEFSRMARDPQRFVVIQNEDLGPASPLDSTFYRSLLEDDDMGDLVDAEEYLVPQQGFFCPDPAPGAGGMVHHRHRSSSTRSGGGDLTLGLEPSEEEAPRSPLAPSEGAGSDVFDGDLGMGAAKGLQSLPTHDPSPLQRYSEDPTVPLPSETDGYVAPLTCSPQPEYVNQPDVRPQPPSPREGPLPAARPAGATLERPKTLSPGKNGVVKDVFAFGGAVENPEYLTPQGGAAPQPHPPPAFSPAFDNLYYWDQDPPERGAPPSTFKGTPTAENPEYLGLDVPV
T9 sequence (P31749 whole entry): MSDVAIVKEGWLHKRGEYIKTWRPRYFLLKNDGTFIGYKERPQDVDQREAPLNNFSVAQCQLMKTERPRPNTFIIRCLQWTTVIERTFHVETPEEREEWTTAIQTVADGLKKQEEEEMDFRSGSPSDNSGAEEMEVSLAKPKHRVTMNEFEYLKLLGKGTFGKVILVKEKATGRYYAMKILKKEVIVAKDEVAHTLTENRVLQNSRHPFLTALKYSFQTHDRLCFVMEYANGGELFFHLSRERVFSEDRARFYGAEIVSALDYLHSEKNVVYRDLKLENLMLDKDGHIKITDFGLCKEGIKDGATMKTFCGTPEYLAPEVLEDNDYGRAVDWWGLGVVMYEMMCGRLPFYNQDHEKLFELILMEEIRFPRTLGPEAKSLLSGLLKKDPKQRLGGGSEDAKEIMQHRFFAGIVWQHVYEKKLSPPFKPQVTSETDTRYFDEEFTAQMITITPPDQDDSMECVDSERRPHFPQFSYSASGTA
T3 sequence (P21860 20-1342): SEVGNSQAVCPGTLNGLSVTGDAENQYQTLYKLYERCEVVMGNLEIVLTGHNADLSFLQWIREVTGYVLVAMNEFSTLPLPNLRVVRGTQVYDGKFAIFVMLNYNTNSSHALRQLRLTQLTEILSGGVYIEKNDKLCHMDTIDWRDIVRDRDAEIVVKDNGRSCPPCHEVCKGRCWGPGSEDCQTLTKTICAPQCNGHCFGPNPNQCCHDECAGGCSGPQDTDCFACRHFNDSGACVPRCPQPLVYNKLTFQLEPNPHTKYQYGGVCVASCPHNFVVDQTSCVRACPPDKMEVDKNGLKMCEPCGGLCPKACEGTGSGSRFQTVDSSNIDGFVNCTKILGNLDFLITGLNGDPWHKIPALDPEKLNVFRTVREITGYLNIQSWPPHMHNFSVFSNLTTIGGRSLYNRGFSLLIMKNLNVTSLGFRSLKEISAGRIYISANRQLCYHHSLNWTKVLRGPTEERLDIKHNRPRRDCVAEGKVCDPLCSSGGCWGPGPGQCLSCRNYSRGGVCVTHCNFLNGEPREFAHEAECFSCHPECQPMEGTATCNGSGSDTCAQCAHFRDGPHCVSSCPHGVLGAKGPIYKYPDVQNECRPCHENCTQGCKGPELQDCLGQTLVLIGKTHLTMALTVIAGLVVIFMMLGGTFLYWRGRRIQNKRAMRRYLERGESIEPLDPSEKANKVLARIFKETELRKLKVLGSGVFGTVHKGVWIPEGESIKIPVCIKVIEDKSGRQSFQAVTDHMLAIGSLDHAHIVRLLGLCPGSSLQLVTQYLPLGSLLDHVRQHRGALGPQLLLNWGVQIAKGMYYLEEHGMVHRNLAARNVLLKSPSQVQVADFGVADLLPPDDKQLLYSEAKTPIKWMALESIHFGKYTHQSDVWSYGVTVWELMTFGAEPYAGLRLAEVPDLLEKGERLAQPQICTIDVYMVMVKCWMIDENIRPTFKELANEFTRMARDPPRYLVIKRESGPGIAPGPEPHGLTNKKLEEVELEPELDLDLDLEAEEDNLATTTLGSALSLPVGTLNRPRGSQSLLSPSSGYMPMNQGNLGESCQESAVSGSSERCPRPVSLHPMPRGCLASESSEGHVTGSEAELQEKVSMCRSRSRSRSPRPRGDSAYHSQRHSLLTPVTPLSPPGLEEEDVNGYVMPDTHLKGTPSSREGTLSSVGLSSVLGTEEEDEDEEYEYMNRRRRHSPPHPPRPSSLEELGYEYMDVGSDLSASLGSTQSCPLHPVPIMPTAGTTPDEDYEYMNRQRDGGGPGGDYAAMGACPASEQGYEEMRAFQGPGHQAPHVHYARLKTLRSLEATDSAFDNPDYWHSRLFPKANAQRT
T5 sequence (P45983 whole entry): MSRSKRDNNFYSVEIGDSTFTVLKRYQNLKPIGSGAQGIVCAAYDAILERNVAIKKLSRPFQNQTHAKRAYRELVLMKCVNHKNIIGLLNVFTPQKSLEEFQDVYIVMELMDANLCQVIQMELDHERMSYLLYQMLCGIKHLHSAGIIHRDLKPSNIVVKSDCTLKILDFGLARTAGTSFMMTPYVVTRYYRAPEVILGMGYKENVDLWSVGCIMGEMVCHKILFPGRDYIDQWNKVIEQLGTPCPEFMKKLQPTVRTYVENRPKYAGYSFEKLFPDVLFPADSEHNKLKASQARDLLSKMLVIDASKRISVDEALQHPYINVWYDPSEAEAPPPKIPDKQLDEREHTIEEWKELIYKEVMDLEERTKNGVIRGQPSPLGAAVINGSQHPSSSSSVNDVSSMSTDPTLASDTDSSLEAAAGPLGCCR
T2 sequence (Q9P289 whole entry): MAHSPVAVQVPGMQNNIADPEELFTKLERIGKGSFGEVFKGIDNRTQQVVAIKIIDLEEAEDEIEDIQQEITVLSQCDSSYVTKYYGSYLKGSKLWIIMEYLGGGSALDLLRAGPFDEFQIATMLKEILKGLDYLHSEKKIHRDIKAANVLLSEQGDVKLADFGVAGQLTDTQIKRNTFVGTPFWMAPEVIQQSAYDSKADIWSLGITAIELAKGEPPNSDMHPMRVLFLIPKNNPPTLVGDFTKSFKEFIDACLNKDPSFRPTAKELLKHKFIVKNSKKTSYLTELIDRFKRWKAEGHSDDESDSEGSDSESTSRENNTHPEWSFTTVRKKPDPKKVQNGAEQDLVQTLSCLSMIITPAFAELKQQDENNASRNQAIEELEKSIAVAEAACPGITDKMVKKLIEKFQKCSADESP
T1 sequence (Q02763 23-1124): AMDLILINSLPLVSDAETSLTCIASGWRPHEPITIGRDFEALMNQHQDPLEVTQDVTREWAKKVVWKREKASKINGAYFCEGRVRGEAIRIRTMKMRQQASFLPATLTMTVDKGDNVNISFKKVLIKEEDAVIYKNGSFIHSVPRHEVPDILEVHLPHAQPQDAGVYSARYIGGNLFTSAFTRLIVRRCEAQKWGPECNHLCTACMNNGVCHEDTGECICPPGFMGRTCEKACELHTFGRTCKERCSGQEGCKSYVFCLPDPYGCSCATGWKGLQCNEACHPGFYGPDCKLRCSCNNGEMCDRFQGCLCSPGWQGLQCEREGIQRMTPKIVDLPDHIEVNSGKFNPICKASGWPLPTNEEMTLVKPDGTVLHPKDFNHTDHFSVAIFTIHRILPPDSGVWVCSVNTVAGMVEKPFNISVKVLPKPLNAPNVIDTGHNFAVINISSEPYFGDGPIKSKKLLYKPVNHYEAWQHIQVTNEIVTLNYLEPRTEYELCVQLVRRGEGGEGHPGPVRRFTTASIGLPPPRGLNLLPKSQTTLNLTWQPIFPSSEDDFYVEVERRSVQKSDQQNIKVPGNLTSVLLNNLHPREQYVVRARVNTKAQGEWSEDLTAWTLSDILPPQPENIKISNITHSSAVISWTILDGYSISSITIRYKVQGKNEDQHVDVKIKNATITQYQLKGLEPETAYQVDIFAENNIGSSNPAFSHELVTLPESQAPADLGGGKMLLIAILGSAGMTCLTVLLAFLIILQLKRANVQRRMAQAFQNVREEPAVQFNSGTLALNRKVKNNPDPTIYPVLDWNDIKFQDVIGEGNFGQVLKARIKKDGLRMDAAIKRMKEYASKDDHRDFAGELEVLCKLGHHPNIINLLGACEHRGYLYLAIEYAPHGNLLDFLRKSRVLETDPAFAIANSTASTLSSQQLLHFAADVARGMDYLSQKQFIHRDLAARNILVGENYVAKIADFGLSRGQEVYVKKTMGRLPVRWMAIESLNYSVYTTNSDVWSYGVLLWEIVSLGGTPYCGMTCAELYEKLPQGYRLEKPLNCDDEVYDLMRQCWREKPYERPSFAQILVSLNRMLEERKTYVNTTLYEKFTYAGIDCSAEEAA

For the molecule `CNc1nc(Nc2ccc(C(=O)N3CCOCC3)cc2OC)nc2[nH]cc(C#N)c12` [Example 1, 2-((2-methoxy-4-(morpholine-4-carbonyl)phenyl)amino)-4-(methylamino)-7H-pyrrolo[2,3-d]pyrimidine-5-carbonitrile], the remaining binding at 1 µM in [1] was determined as 92%; in test [2], 69%; in test [3] it was 68%; in test [4], 33%; in test [5], 0%; in test [6] it was 85%. Also, the results for the remaining binding at 1 µM in test [7], in [8] and in test [9] were 93%, 79% and 83%, respectively.

With `CC1(Nc2nc(Nc3cnn([C@H]4CCN(C5COC5)C[C@@H]4F)c3Cl)nc3[nH]cc(C#N)c23)CC1` [Example 52, 2-((5-chloro-1-((3S,4S)-3-fluoro-1-(oxetane-3-yl)piperidine-4-yl)-1H-pyrazole-4-yl)amino)((1-methylcyclopropyl)amino)-7H-pyrrolo[2,3-d]pyrimidine-5-carbonitrile], the remaining binding at 1 µM in test [1] came out at 46%; in [2], 28%; in test [3] it was 100%; in [4], 9.9%; in test [5], 0%; in test [6], 0.05%. In addition, the remaining binding at 1 µM in test [7] came out at 39%; in test [8], 100%; in test [9], 100%.

`CCNc1nc(Nc2ccc(C(=O)N3CCC(N4CCOCC4)CC3)cc2OC)nc2[nH]cc(C(F)(F)F)c12` [Example 104, (4-((4-(ethylamino)-5-(trifluoromethyl)-7H-pyrrolo[2,3-d]pyrimidine-2-yl)amino)-3-methoxyphenyl)(4-morpholinopiperidine-1-yl)methanone]: the remaining binding at 1 µM in [1] worked out at 100%; in [2], 100%; in [3], 100%; in test [4], 0.75%; in [5], 25%; in test [6] it was 92%. For the same molecule, the remaining binding at 1 µM in test [7] was determined as 94%; in test [8], 100%; in test [9] it was 100%.
